Test results from patent US8168645B2, “Arylsulfonamide compounds” (Genentech, Inc., priority 2006, dated 2012).

Tests used:
[1] = target: GST tagged BCl-xL ΔC25 protein (Homo sapiens, UniProt Q07817); assay: Alphascreen competition binding assay, GST tagged Bcl-xL vs biotinylated Bim BH3-26 peptide; details: competition with Bim BH3-26 peptide; unit inferred
From the text: (§1) Measurement of competition of compounds of the invention with Bim26-mer for a Bcl-2 homologue binding site.
(§2) Alphascreen (Amplified Luminescent Proximity Homogenous Assay) is a bead based technology which measures the interaction between molecules. The assay consists of two hydrogel coated beads which, when bought into close proximity by a binding interaction, allow the transfer of singlet oxygen from a donor bead to an acceptor bead.
(§3) Upon binding and excitation with laser light at 680 nm, a photosensitizer in the donor bead converts ambient oxygen to a more excited singlet state. This singlet oxygen then diffuses across to react with a chemiluminescer in the acceptor bead. Fluorophores within the same bead are activated resulting in the emission of light at 580-620 nm.
(§4) Screening of the compounds of the invention was performed using the Alphascreen GST (glutathione s-transferase) detection kit system. Test compounds were titrated into the assay which consisted of GST tagged Bclw ΔC29 protein (0.05 nM Final concentration) and Biotinylated Bim BH3-26 peptide, Biotin-[…] (3.0 nM Final concentration). For the GST tagged BCl-xL assay, GST tagged BCl-xL ΔC25 protein (0.6 nM Final concentration) and Biotinylated Bim BH3-26 peptide, Biotin-[…] (5.0 nM final concentration) were used. To this reaction mix anti-GST coated acceptor beads and Streptavidin coated donor beads, both at 15 μg/ml Final concentration, were added and the assay mixture incubated for 4 hours at room temperature before reading. Similarly when the Bcl-2 protein was Mcl-1, GST tagged Mcl-1 protein (0.4 nM Final concentration) and Biotinylated Bak BH3 peptide, Biotin-[…]-OH (4.0 nM Final concentration) were used.
(§5) • 1) prepare a 384 well with 4.75 μL of buffer and 0.25 μL of compounds (20 mM in DMSO) per well. • 2) Mix the binding partners, in one tube add Bcl-w, BCl-xL or Mcl-1 and the acceptor beads, in the second tube add Biotinylated BH3 peptide and the donor beads. • 3) Pre-incubate the two pairs of binding partners for 30 minutes. • 4) Add 1 μL of acceptor beads:Bcl-w, BCl-xL or Mcl-1 protein mix to each well. • 5) Seal the plate and incubate at room temperature for 30 minutes. • 6) Add 10 μL of donor bead:BH3 peptide mix to each well. • 7) Seal the plate, cover with foil and incubate for 4 hours.
(§6) Assay buffer contained 50 mM Hepes pH 7.4, 10 mM DTT, 100 mM NaCl, 0.05% Tween and 0.1 mg/ml casein. Bead dilution buffer contained 50 mM Tris, pH 7.5, 0.01% Tween and 0.1 mg/ml casein. The final DMSO concentration in the assay was 0.5%. Assays were performed in 384 well white Optiplates and analyzed on the PerkinElmer Fusion alpha plate reader (Ex680, Em520-620 nM).
(§7) The GST Alphascreen detection kit and Optiplates were purchased from PerkinElmer.

[2] = target: GST tagged Mcl-1 protein (Homo sapiens, UniProt Q07820); assay: Alphascreen competition binding assay, GST tagged Mcl-1 vs biotinylated Bak BH3 peptide; details: competition with Bak BH3 peptide; unit inferred
Chain of GST tagged Mcl-1 protein (Q07820 whole entry): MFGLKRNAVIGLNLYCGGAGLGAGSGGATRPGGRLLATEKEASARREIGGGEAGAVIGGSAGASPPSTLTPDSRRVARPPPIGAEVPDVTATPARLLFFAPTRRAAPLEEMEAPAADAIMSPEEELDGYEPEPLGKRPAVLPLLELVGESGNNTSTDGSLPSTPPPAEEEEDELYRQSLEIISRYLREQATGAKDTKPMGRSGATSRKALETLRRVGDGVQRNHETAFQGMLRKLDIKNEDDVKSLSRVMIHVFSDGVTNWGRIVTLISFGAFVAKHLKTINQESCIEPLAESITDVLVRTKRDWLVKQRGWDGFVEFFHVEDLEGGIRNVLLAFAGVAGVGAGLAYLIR
From the text: as §1, §2, §3, §4, §5, §6, §7

[3] = tested on: SCLC cell line NCI-H889; assay: CellTitre-Glow luminescent cytotoxicity assay, NCI-H889; assay type: cell-based; details: Homo sapiens; NCI-H889 cells, 48 hr incubation
Experimental: (§8) • 1. SCLC cell lines NCI-H889, NCI-H1963, and NCI-H146 were purchased from American Type Culture Collection. Cells were maintained in RPMI 1640 (Invitrogen Corp., Grand Island, N.Y.) supplemented with 10% fetal bovine serum (FBS, Invitrogen), 1% sodium pyruvate, 25 mM HEPES, 4.5 g/L glucose and 1% penicillin/streptomycin (Sigma) in a humidified chamber at 37° C. containing 5% CO2. • 2. cells were grown as suspension aggregates in a T162 flask with 25 ml medium and kept at concentration of 1 million/mL. Test Compound Stocks: • 1. test compounds were prepared as 10 mM stocks in DMSO and stored at −20° C. Test Compound Serial Dilutions: • 1. prewarmed medium to 37° C. • 2. thawed compounds to room temperature. • 3. determined what will be the highest concentration to be tested. (i.e. 10 μM). • 4. prepared a 2× stock in culture medium of the first dose (i.e. 2×10 μM=20 μM) in an Eppendorf tube (i.e. 4 μl of 5 mM stock into 1000 μl=20 μM). • 5. inverted tube several times to mix. […] Columns 1-10 comprised the serial test compound treatments, column 11 was the untreated control and column 12 was the ‘no cell’ control for determining the background. • 1. in a 96 well plate was added 50 μl medium/well in columns 2 thru 11 and 100 μl was added to column 12. • 2. in column 1 was added 100 μl of 2× compound. • 3. made serial dilutions by transferring 50 μl to column 2, and so on up to column 10. After adding 50 μl to column 10 and mixing, discarded 50 μl. • 4. stored plates at 37° C. until ready to add cells. Cell Preparation • 1. Cell were washed one time in the culture medium and prepared as a suspension. • a. cell were first spun down to remove the medium and then ˜1 ml 0.25% trypsin was added and gently mixed and incubated for no more than three minutes at room temperature. • b. ˜10 ml of the medium was added and the cells were gently pipetted several times. • c. cells were then counted and spun down to the volume necessary for the total cell number needed, then resuspended in the medium to 200 cells/μl concentration (50,000 cells/well). • 2. […]

[4] = tested on: SCLC cell line NCI-H146; assay: CellTitre-Glow luminescent cytotoxicity assay, NCI-H146; assay type: cell-based; details: Homo sapiens; NCI-H146 cells, 48 hr incubation
Experimental: as §8

[5] = tested on: SCLC cell line NCI-H1963; assay: CellTitre-Glow luminescent cytotoxicity assay, NCI-H1963; assay type: cell-based; details: Homo sapiens; NCI-H1963 cells, 48 hr incubation
Experimental: as §8

[6] = tested on: mouse embryo fibroblasts (MEFs): wild type, Bax/Bak double knockout, Noxa-expressing, Bad-expressing; assay: Cell viability assay on mouse embryo fibroblasts (propidium iodide uptake); assay type: cell-based; details: propidium iodide uptake after 24 hours
Experimental: FIG. 1 graphically depicts the effect of Compound 1 (FIG. 1A) and Etoposide (FIG. 1B), at increasing concentrations, on the % viability of certain mouse embryo fibroblast (MEF) cells as assessed by propidium iodide uptake after 24 hours. Noxa and Bad were introduced by retrovirally infecting the cells with pMIG retroviruses as described by Chen et al., 2005.
The efficacy of the compounds of the present invention can also be determined in cell based killing assays using a variety of cell lines and mouse tumor models. For example, their activity on cell viability can be assessed on a panel of cultured tumorigenic and non-tumorigenic cell lines, as well as primary mouse or human cell populations, e.g. lymphocytes. For these assays, 5,000-20,000 cells are cultured at 37° C. and 10% CO2 in appropriate growth media, eg: 100 μL Dulbecco's Modified Eagle's medium supplemented with 10% foetal calf serum, asparaginase and 2-mercaptoethanol in the case of pre-B Eμ-Myc mouse tumors in 96 well plates. […] Cell viability is determined by the ability of the cells to exclude propidium iodide (10 μg/mL by immunofluorescence analysis of emission wavelengths of 660-675 nm on a flow cytometer (BD FACScan). Alternatively, a high throughput calorimetric assay such as the Cell Titre 96 could be used. Aqueous Non-Radioactive Cell Proliferation Assay (Promega) may be used. Cell death by apoptosis is confirmed by pre-incubation of the cells with 50 μM of a caspase inhibitor such as zVAD-fmk.
Neutralisation of both Bcl-xL and Mcl-1 anti-apoptotic proteins in normal cells is required before a cell undergoes apoptosis via the downstream Bax/Bak pathway [Chen et al., 2005; Willis et al., 2005]. A compound that only targets Bcl-xL should not affect normal cells, but could kill certain cancer cells if they rely more on Bcl-xL and less on Mcl-1 for survival. To mirror this, compound 1 was tested for its effect on survival of wild type (wt) mouse embryo fibroblasts (MEFs), Bax/Bak double knockout (BB DKO) MEFs, MEFs that expressed Noxa, and MEFs that expressed Bad. Noxa specifically neutralizes Mcl-1.

Chain of GST tagged BCl-xL ΔC25 protein (Q07817 1-208 limits assumed): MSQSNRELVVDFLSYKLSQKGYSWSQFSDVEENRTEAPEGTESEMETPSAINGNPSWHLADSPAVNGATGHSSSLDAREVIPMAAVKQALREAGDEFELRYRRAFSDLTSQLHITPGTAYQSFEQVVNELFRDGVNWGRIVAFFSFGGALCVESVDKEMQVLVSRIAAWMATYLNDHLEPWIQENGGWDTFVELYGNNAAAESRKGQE

Row | Compound | IC50 [1] | IC50 [2] | EC50 [3] | EC50 [4] | EC50 [5] | Selectivity of killing of Noxa-expressing MEFs versus MEFs where both Bcl-xL and Mcl-1 are protective (% viability) ([6]; FIG. 1A/1B) | Effect on Bax/Bak double knockout (BB DKO) MEFs ([6]; FIG. 1B)
1 | CN(C)CC[C@H](CSc1ccccc1)Nc1ccc(S(=O)(=O)Nc2ncnc3cc(N4CCN(Cc5ccccc5-c5ccc(Cl)cc5)CC4)ccc23)cc1S(=O)(=O)C(F)(F)F [Compound 2, N-{7-[4-(4′-Chloro-biphenyl-2-ylmethyl)-piperazin-1-yl]-quinazolin-4-yl}-4-((R)-3-dimethylamino-1-phenylsulfanylmethyl-propylamino)-3-trifluoromethanesulfonyl-benzenesulfonamide] | 6 nM | 50 µM |  |  |  |  | 
2 | O=[N+]([O-])c1cc(S(=O)(=O)Nc2ncnc3cc(N4CCN(Cc5ccccc5-c5ccc(Cl)cc5)CC4)ccc23)ccc1N[C@H](CCN1CCOCC1)CSc1ccccc1 [Compound 3, N-{7-[4-(4′-Chloro-biphenyl-2-ylmethyl)-piperazin-1-yl]-quinazolin-4-yl}-4-((R)-3-morpholin-4-yl-1-phenylsulfanylmethyl-propylamino)-3-nitro-benzenesulfonamide] | 34 nM | 6 µM | 1.3 µM | 3.7 µM | 1.4 µM |  | 
3 | O=S(=O)(Nc1ncnc2cc(N3CCN(Cc4ccccc4-c4ccc(Cl)cc4)CC3)ccc12)c1ccc(N[C@H](CCN2CCOCC2)CSc2ccccc2)c(S(=O)(=O)C(F)(F)F)c1 [Compound 4, N-{7-[4-(4′-Chloro-biphenyl-2-ylmethyl)-piperazin-1-yl]-quinazolin-4-yl}-4-((R)-3-morpholin-4-yl-1-phenylsulfanylmethyl-propylamino)-3-trifluoromethanesulfonyl-benzenesulfonamide] | 16 nM |  | 0.82 µM | 0.63 µM | 0.4 µM |  | 
4 | CN(C)CC[C@H](CSc1ccccc1)Nc1ccc(S(=O)(=O)Nc2ncnc3cc(N4CCN(CC5=C(c6ccc(Cl)cc6)CCC(C)(C)C5)CC4)ccc23)cc1[N+](=O)[O-] [Compound 5, N-(7-{4-[2-(4-Chloro-phenyl)-5,5-dimethyl-cyclohex-1-enylmethyl]-piperazin-1-yl}-quinazolin-4-yl)-4-((R)-3-dimethylamino-1-phenylsulfanylmethyl-propylamino)-3-nitro-benzenesulfonamide] | 3 nM | 7 µM |  |  |  |  | 
5 | CN(C)CC[C@H](CSc1ccccc1)Nc1ccc(S(=O)(=O)Nc2ncnc3cc(N4CCN(CC5=C(c6ccc(Cl)cc6)CCC(C)(C)C5)CC4)ccc23)cc1S(=O)(=O)C(F)(F)F [Compound 6, N-(7-{4-[2-(4-Chloro-phenyl)-5,5-dimethyl-cyclohex-1-enylmethyl]-piperazin-1-yl}-quinazolin-4-yl)-4-((R)-3-dimethylamino-1-phenylsulfanylmethyl-propylamino)-3-trifluoromethanesulfonyl-benzenesulfonamide] | 3 nM | 20 µM |  |  |  |  | 
6 | CC1(C)CCC(c2ccc(Cl)cc2)=C(CN2CCN(c3ccc4c(NS(=O)(=O)c5ccc(N[C@H](CCN6CCOCC6)CSc6ccccc6)c([N+](=O)[O-])c5)ncnc4c3)CC2)C1 [Compound 7, N-(7-{4-[2-(4-Chloro-phenyl)-5,5-dimethyl-cyclohex-1-enylmethyl]-piperazin-1-yl}-quinazolin-4-yl)-4-((R)-3-morpholin-4-yl-1-phenylsulfanylmethyl-propylamino)-3-nitro-benzenesulfonamide] | 20 nM | 10 µM |  |  |  |  | 
7 | CC1(C)CCC(c2ccc(Cl)cc2)=C(CN2CCN(c3ccc4c(NS(=O)(=O)c5ccc(N[C@H](CCN6CCOCC6)CSc6ccccc6)c(S(=O)(=O)C(F)(F)F)c5)ncnc4c3)CC2)C1 [Compound 8, N-(7-{4-[2-(4-Chloro-phenyl)-5,5-dimethyl-cyclohex-1-enylmethyl]-piperazin-1-yl}-quinazolin-4-yl)-4-((R)-3-morpholin-4-yl-1-phenylsulfanylmethylpropylamino)-3-trifluoromethanesulfonyl benzenesulfonamide] | 29 nM | 10 µM |  |  |  |  | 
8 | COc1cc([C@@H]2c3cc4c(cc3[C@@H](O[C@@H]3O[C@@H]5CO[C@@H](C)O[C@H]5[C@H](O)[C@H]3O)[C@H]3COC(=O)[C@H]23)OCO4)cc(OC)c1O [etoposide] |  |  |  |  |  | less selectively than compound 1 | resistance of BB DKO MEFs
